The text below walks through data of patent US4150126A, “Novel enol esters of steroids, compositions containing such compounds, processes for their preparation and methods of treatment therewith” (Aktiebolaget Leo, priority 1976, dated 1979).

Data set [1] has as its system Ehrlich ascites tumour, ELD hyperdiploid (46 chromosomes). Put plainly: Ehrlich ascites tumour growth inhibition in mice, i.p. It counts as in vivo, SPF NMRI mice. The following applies: one injection i.p.; for Tumour weight Treated/Control (%): killed on 8th day. An excerpt:
(§1) The experimental design is in accordance with the standards set by the CCNSC (Cancer Cheomotherapy Reports, January 1959 and December 1962).
Ehrlich ascites tumour, ELD hyperdiploid
Experimental animals: SPF NMRI mice.
Tumour implant: 2 × 10^6 tumour cells i.p.
(§2) Therapy: One injection i.p. on the day following implantation.
(§3) Termination: The animals are killed on the 8th day.
Evaluation: Weight of tumours of test animals compared with
those of control animals.

Data set [2] can be described thus: Progestional activity, Clauberg test. It is filed as in vivo. As to conditions: standard scale of McPhail, preliminary experiments. The source says:
The progestional activities of compounds 1:1, 1:2, 1:14, 2:2, and 2:11 are investigated in the Clauberg test using the prinicpal procedure as described by Elton and Edgren (Endocrinology 63 (1958) 464) and using the standard scale of McPhail (J. Physiol., London, 8 (1934) 145).

For data set [3], the system named is ventral prostate. Put plainly: Androgenic effect in castrated male rats (ventral prostate weight). It counts as in vivo. The following applies: both after subcutaneous and intraperitoneal administration; one daily injection for 7 days; preliminary experiments. As for the experimental part:
The androgenic activity, as described below, is determined with established methods (see e.g. Dorfman, R.: Methods in Hormone Research, vol. II, Acad. Press, New York and London 1962, p. 275).
The androgenic effect is assayed in castrated male rats. Beginning two weeks after castration the animals are given one daily injection of the compound for 7 days. The weight of the ventral prostate is determined on the 8th day.

For data set [4], the system named is Hepatoma AH 130. Put plainly: Hepatoma AH 130 tumour growth inhibition in rats, i.p. It is filed as in vivo, Sprague-Dawley rats. As to conditions: Hepatoma AH 130, one injection i.p.
Source text: (§4) LD50 is the dose that causes a 50 percent lethality of the animals, and ED50 is the dose that causes a 50 percent reduction of tumour size.
(§5) From the data below it is obvious that the compounds have a very low toxicity, and that the therapeutic indexes (T.I.), i.e. the ratios LD50/ED50, are very high.
as §1
(§6) Experimental animals: Sprague-Dawley rats.
Tumour implant: 5 × 10^6 tumour cells i.p.
as §2, §3
(§7) Evaluation: Weights of tumours of test animals are compared
(§8) with those of control animals.

Data set [5] deals with Walker carcinosarcoma 256. Put plainly: Walker carcinosarcoma 256 tumour growth inhibition in rats, p.o. The following applies: Walker carcinosarcoma 256, daily p.o. for 5 days. It counts as in vivo, Sprague-Dawley rats.
Source text: as §4, §5, §1
Walker carcinosarcoma 256
as §6
Tumour implant: Tumour pieces with 2-4 mm diameter, subcu-
Therapy: Daily p.o. administration for 5 days starting on
the day following implantation.
Termination: The animals are killed on the 9th day.
as §7, §8

The nature of data set [6]: Thymolytic activity (Hilger, Endocrine Bioassay Data, assay 8). As to conditions: preliminary experiments. It counts as in vivo. An excerpt:
In preliminary experiments, invvestigating the thymolytic effect according to A. C.

Turning to `CC(=O)O[C@]1(C(C)=O)CC[C@H]2[C@@H]3CC=C4C=C(OC(=O)c5ccc(C)c(N(CCCl)CCCl)c5)CC[C@]4(C)[C@H]3CC[C@@]21C` [2:11, 17-acetoxy-3-[3-(N,N-bis(2-chloroethyl)amino)-4-methylbenzoyloxy]pregna-3,5-dien-20-one], in data set [1] (1000 mg/kg), the Mortality is 0/12 and the “Tumour weight Treated/Control (%)” value turned out to be 2%. Also, the progestional activity result in data set [2] was “considerable activity”.
Consider `C#C[C@]1(OC(C)=O)CC[C@H]2[C@@H]3CC=C4C=C(OC(=O)CCCc5ccc(N(CCCl)CCCl)cc5)CC[C@@H]4[C@H]3CC[C@@]21C` [Compound 2:2, 17β-acetoxy-3/4-(4-(N,N-bis(2-chloroethyl)amino)phenyl)butanoyloxy/-17α-ethynylestra-3,5-diene], for which the progestional activity result in data set [2] is given as “considerable activity”.
Regarding `CC(=O)O[C@H]1CC[C@H]2[C@@H]3CC=C4C=C(OC(=O)CCCc5ccc(N(CCCl)CCCl)cc5)CC[C@]4(C)[C@H]3CC[C@]12C` [1:11, 17β-acetoxy-3-[4-(4-(N,N-bis(2-chloroethyl)amino)phenyl)butanoyloxy]androsta-3,5-diene], the androgenic effect entry in data set [3] was “considerable effect”.
Take `CCC(=O)O[C@H]1CC[C@H]2[C@@H]3CC=C4C=C(OC(=O)[C@H](Cc5ccc(N(CCCl)CCCl)cc5)NC(C)=O)CC[C@]4(C)[C@H]3CC[C@]12C` [1:13, 3-[(2S)-2-acetamido-3-(4-(N,N-bis(2-chloroethyl)amino)phenyl)propanoyloxy]-17β-propanoyloxyandrosta-3,5-diene]: the anti-tumour activity result in data set [4] is “exhibit anti-tumour activity”.
Take `CC(=O)O[C@H]1CC[C@H]2[C@@H]3CC[C@H]4CC(OC(=O)c5ccc(C)c(N(CCCl)CCCl)c5)=CC[C@]4(C)[C@H]3CC[C@]12C` [Compound 2:1, 17β-acetoxy-3-/3-(N,N-bis(2-chloroethyl)amino)-4-methylbenzoyloxy/androst-2-ene]: the anti-tumour activity result in data set [5] is given as “exhibit anti-tumour activity”.
With `CC(=O)O[C@H]1CC[C@H]2[C@@H]3CCC4CC(OC(=O)CCCc5ccc(N(CCCl)CCCl)cc5)=CC[C@]4(C)[C@H]3CC[C@]12C` (stereo partly drawn) [1:12, 17β-acetoxy-3-[4-(4-(N,N-bis(2-chloroethyl)amino)phenyl)butanoyloxy]androst-2-ene], the androgenic effect result in data set [3] was “considerable effect”.
As to `CC(=O)OCC(=O)[C@H]1CC[C@H]2[C@@H]3CC=C4C=C(OC(=O)CCCc5ccc(N(CCCl)CCCl)cc5)CC[C@]4(C)[C@H]3CC[C@]12C` [1:17, 21-acetoxy-3-[4-(4-(N,N-bis(2-chloroethyl)amino)phenyl)butanoyloxy]-pregna-3,5-dien-20-one], the thymolytic effect entry in data set [6] was “significant activity”.
For `CC(=O)OCC(=O)[C@@]1(OC(C)=O)CC[C@H]2[C@@H]3CC=C4C=C(OC(=O)CCCc5ccc(N(CCCl)CCCl)cc5)CC[C@]4(C)[C@H]3C(=O)C[C@@]21C` [1:15, 17,21-diacetoxy-3-[4-(4-(N,N-bis(2-chloroethyl)amino)phenyl)butanoyloxy]pregna-3,5-dien-11,20-dione], in data set [6], the thymolytic effect entry was “significant activity”.
Take `CC(=O)O[C@]1(C(C)=O)CC[C@H]2[C@@H]3CC=C4C=C(OC(=O)Cc5ccc(N(CCCl)CCCl)cc5)CC[C@]4(C)[C@H]3CC[C@@]21C` [Compound 1:14, 17-acetoxy-3-[4-(N,N-bis(2-chloroethyl)amino)phenylacetoxy]pregna-3,5-dien-20-one]: the progestional activity entry in data set [2] was “considerable activity”.
Regarding `CC(=O)OCC(=O)[C@@]1(OC(C)=O)CC[C@H]2[C@@H]3CC=C4C=C(OC(=O)CCCc5ccc(N(CCCl)CCCl)cc5)CC[C@]4(C)[C@H]3CC[C@@]21C` [1:16, 17,21-diacetoxy-3-[4-(4-(N,N-bis(2-chloroethyl)amino)phenyl)butanoyloxy]-pregna-3,5-dien-20-one], the thymolytic effect entry in data set [6] was “significant activity”.
Regarding `CC(=O)O[C@H]1CC[C@H]2[C@@H]3CC=C4C=C(OC(=O)Cc5ccc(N(CCCl)CCCl)cc5)CC[C@]4(C)[C@H]3CC[C@]12C` [1:3], the androgenic effect result in data set [3] is given as “considerable effect”.
As for `CC(=O)O[C@]1(C(C)=O)CC[C@H]2[C@@H]3CC=C4C=C(OC(=O)CCCc5ccc(N(CCCl)CCCl)cc5)CC[C@]4(C)[C@H]3CC[C@@]21C` [Compound 1:1, 17-acetoxy-3-/4-(4-(N,N-bis(2-chloroethyl)amino)phenyl)butanoyloxy/pregna-3,5-dien-20-one], in data set [1] (500 mg/kg), the Mortality is 0/12 and the “Tumour weight Treated/Control (%)” value is given as 1%. Further, in data set [4], the anti-tumour activity result is reported as “exhibit anti-tumour activity”. For the same compound, the progestional activity result in data set [2] was “considerable activity”.
For `CC(=O)[C@H]1CC[C@H]2[C@@H]3CC=C4C=C(OC(=O)CCCc5ccc(N(CCCl)CCCl)cc5)CC[C@]4(C)[C@H]3CC[C@]12C` [Compound 1:2, 3-/4-(4-(N,N-bis(2-chloroethyl)amino)phenyl)butanoyloxy/pregna-3,5-dien-20-one], the progestional activity entry in data set [2] is given as “considerable activity”.
